Laboratory results as given in patent publication US10633407B2, “14-membered ketolides and methods of their preparation and use” (President and Fellows of Harvard College, priority 2014, dated 2020).
Values after ≈ are worked out from the molar mass of the structure shown.

Key:
Assay in all cases: CLSI broth dilution MIC determination
Type in all cases: cell-based
[1] = tested on: S. aureus MRSA: USA300; conditions: S. aureus MRSA: USA300; Gram-positive
In short: (§1)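 Broth dilution MICs determined by CLSI standard procedures across a strain panel that includes multidrug- and macrolide-resistant strains. Resistance genotypes may be constitutive or inducible.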

[2] = tested on: S. aureus USA600, GISA; conditions: S. aureus USA600, GISA; Gram-positive
In short: as §1

[3] = tested on: H. influenzae ATCC49247; conditions: Gram-negative
In short: as §1

[4] = tested on: S. pneumoniae ATCC 49619; conditions: S. pneumoniae ATCC 49619; Gram-positive
In short: as §1

[5] = tested on: S. aureus MRSA: USA100; conditions: S. aureus MRSA: USA100; Gram-positive
In short: as §1

[6] = tested on: S. pneumoniae mef A genotype (second strain so labelled); conditions: Gram-positive
In short: as §1

[7] = tested on: E. coli ATCC 25922; conditions: E. coli ATCC 25922; Gram-negative
In short: as §1

[8] = tested on: S. aureus ATCC 29213; conditions: S. aureus ATCC 29213; Gram-positive
In short: as §1

[9] = tested on: E. coli NDM-1; conditions: Gram-negative
In short: as §1

[10] = tested on: E. coli CTX-M-14; conditions: Gram-negative
In short: as §1

[11] = tested on: E. coli TEM-1; conditions: E. coli TEM-1; Gram-negative
In short: as §1

[12] = tested on: S. pneumoniae erm B + mef A genotype; conditions: S. pneumoniae erm B + mef A genotype; Gram-positive
In short: as §1

[13] = tested on: S. aureus erm A genotype; conditions: S. aureus erm A genotype; Gram-positive
In short: as §1

[14] = tested on: K. pneumoniae TEM-10; conditions: Gram-negative
[15] = tested on: K. pneumoniae KPC-2; conditions: Gram-negative
[16] = tested on: A. baumannii imipenem-resistant; conditions: Gram-negative
[17] = tested on: K. pneumoniae ATCC 10031; conditions: K. pneumoniae ATCC 10031; Gram-negative
[18] = tested on: A. baumannii IMP-4; conditions: Gram-negative
[19] = tested on: P. aeruginosa ATCC 27853; conditions: P. aeruginosa ATCC 27853; Gram-negative
[20] = tested on: H. influenzae Erythro >4, Azithro 1; conditions: H. influenzae Erythro >4, Azithro 1; Gram-negative
Description: MIC data was collected for the novel macrolides that this platform has produced against over 21 unique strains of B. subtilis, E. coli, S. aureus, S. pneumoniae, and H. influenzae, including several multidrug-resistant strains, with a special focus on macrolide resistant mechanisms (vide supra). […] CLSI standard procedures for broth dilution MIC determination were used. […] These genotypes can be constitutive or inducible.

[21] = tested on: S. pyogenes Macrolide-resistant; conditions: S. pyogenes Macrolide-resistant; Gram-positive
[22] = tested on: K. pneumoniae SHV-12; conditions: Gram-negative
[23] = tested on: A. baumannii ATCC 19606; conditions: A. baumannii ATCC 19606; Gram-negative
[24] = tested on: A. baumannii chromosomal class C; conditions: Gram-negative
[25] = tested on: S. pyogenes ATCC 19615; conditions: S. pyogenes ATCC 19615; Gram-positive
[26] = tested on: E. faecalis ATCC 29212; conditions: E. faecalis ATCC 29212; Gram-positive
[27] = tested on: E. faecalis Vancomycin-resistant; conditions: E. faecalis Vancomycin-resistant; Gram-positive
[28] = tested on: P. aeruginosa HPA101-1477; conditions: Gram-negative

Row | Structure (SMILES) | MIC [1] [µg/mL] | MIC [2] [µg/mL] | MIC [3] [µg/mL] | MIC [4] [µg/mL] | MIC [5] [µg/mL] | MIC [6] [µg/mL] | MIC [7] [µg/mL] | MIC [8] [µg/mL] | MIC [9] [µg/mL] | MIC [10] [µg/mL] | MIC [11] [µg/mL] | MIC [12] [µg/mL] | MIC [13] [µg/mL] | MIC [14] [µg/mL] | MIC [15] [µg/mL] | MIC [16] [µg/mL] | MIC [17] [µg/mL] | MIC [18] [µg/mL] | MIC [19] [µg/mL] | MIC [20] [µg/mL] | also measured
1 | CC[C@H]1OC(=O)[C@H](C)C(=O)[C@H](C)[C@@H](O[C@@H]2OC(C)CC(N(C)C)C2O)[C@](C)(OC)C[C@@H](C)C(=O)[C@H](C)[C@H]2N(C/C=C/Cn3cc(-c4cccc(N)n4)nn3)C(=O)O[C@]12C (stereo partly shown) [FSM-100364] | 2 (≈ 2.42 µM) | > 32 | 2 (≈ 2.42 µM) | < 0.0312 | > 32 | 0.25 (≈ 0.303 µM) | 16 (≈ 19.4 µM) | < 0.0312 | > 32 | > 32 | > 32 | 0.125 | > 32 | 32 (≈ 38.7 µM) | > 32 | 4 (≈ 4.84 µM) | 8 (≈ 9.69 µM) | > 32 | > 32 | 0.5 (≈ 0.605 µM) | MIC [21]: < 0.0312 µg/mL; MIC [22]: > 32 µg/mL; MIC [23]: 8 µg/mL (≈ 9.69 µM); MIC [24]: 8 µg/mL (≈ 9.69 µM); MIC [25]: < 0.0312 µg/mL; MIC [26]: < 0.0312 µg/mL; MIC [27]: > 32 µg/mL; MIC [28]: > 32 µg/mL
2 | CC[C@H]1OC(=O)[C@H](C)C(=O)[C@H](C)[C@@H](O[C@@H]2OC(C)CC(N(C)C)C2O)[C@](C)(OC)C[C@@H](C)C(=O)[C@H](C)[C@H]2N(C/C=C/Cn3nnc(-c4ccccn4)n3)C(=O)O[C@]12C (stereo partly shown) [FSM-100371] | 4 (≈ 4.93 µM) | > 32 | 2 (≈ 2.46 µM) | < 0.0312 | > 32 | 0.125 (≈ 0.154 µM) | > 32 | < 0.0312 | > 32 | > 32 | > 32 | 0.25 | > 32 | > 32 | > 32 | > 32 | 8 (≈ 9.85 µM) | > 32 | > 32 | 2 (≈ 2.46 µM) | MIC [21]: 0.0625 µg/mL (≈ 0.077 µM); MIC [22]: > 32 µg/mL; MIC [23]: 16 µg/mL (≈ 19.7 µM); MIC [24]: 32 µg/mL (≈ 39.4 µM); MIC [25]: < 0.0312 µg/mL; MIC [26]: < 0.0312 µg/mL; MIC [27]: > 32 µg/mL; MIC [28]: > 32 µg/mL
3 | CC[C@H]1OC(=O)[C@H](C)C(=O)[C@H](C)[C@@H](O[C@@H]2OC(C)CC(N(C)C)C2O)[C@](C)(OC)C[C@@H](C)C(=O)[C@H](C)[C@H]2N(C/C=C/Cn3nnnc3-c3ccccn3)C(=O)O[C@]12C (stereo partly shown) [FSM-100376] | 8 (≈ 9.85 µM) | > 32 | 1 (≈ 1.23 µM) | < 0.0312 | > 32 | < 0.0312 | 8 (≈ 9.85 µM) | < 0.0312 | > 32 | > 32 | 16 (≈ 19.7 µM) | 0.25 | > 32 | 32 (≈ 39.4 µM) | > 32 | 32 (≈ 39.4 µM) | 8 (≈ 9.85 µM) | > 32 | 32 (≈ 39.4 µM) | 1 (≈ 1.23 µM) | MIC [21]: < 0.0312 µg/mL; MIC [22]: > 32 µg/mL; MIC [23]: 16 µg/mL (≈ 19.7 µM); MIC [24]: 16 µg/mL (≈ 19.7 µM); MIC [25]: < 0.0312 µg/mL; MIC [26]: < 0.0312 µg/mL; MIC [27]: > 32 µg/mL; MIC [28]: > 32 µg/mL
4 | CC[C@H]1OC(=O)[C@@](C)(F)C(=O)[C@H](C)[C@@H](O[C@@H]2OC(C)CC(N(C)C)C2O)[C@](C)(OC)C[C@@H](C)C(=O)[C@H](C)[C@H]2N(C/C=C/Cn3nnnc3-c3ccccn3)C(=O)O[C@]12C (stereo partly shown) [FSM-100386] | 4 (≈ 4.82 µM) | > 32 | 4 (≈ 4.82 µM) | < 0.0312 | > 32 | 0.0625 (≈ 0.0753 µM) | 16 (≈ 19.3 µM) | < 0.0312 | > 32 | > 32 | 16 (≈ 19.3 µM) | 0.25 | > 32 | > 32 | > 32 | > 32 | 8 (≈ 9.64 µM) | > 32 | > 32 | 2 (≈ 2.41 µM) | MIC [21]: 0.0625 µg/mL (≈ 0.0753 µM); MIC [22]: > 32 µg/mL; MIC [23]: 32 µg/mL (≈ 38.6 µM); MIC [24]: 32 µg/mL (≈ 38.6 µM); MIC [25]: < 0.0312 µg/mL; MIC [26]: < 0.0312 µg/mL; MIC [27]: > 32 µg/mL; MIC [28]: > 32 µg/mL
